According to paper PMC7946403, “Targeted LC-MS/MS platform for the comprehensive determination of peptides in the kallikrein-kinin system” (Analytical and Bioanalytical Chemistry, 2021):
Structures can show the parent of a compound that is named as a salt.

Legend:
[1] = system: artificial generation of bradykinin; assay: Evaluation of inhibitors preventing the artificial formation of bradykinin for generation of blank plasma; set-up: species or system human; details: plasma from prespiked S-Monovettes stored at 21 °C, analysed after 30 min, 1.5 h and 4.5 h, n = 3
Experimental: Due to the endogenous presence of kinins in human plasma, it was aimed to develop a surrogate matrix mimicking human biological samples at best. Therefore, distinct serine protease inhibitors were evaluated for their ability to prevent the artificial generation of bradykinin after blood sampling. […] Therefore, plasma was drawn into prespiked S-Monovettes® and aliquots of the plasma stored at 21 °C were analysed after 30 min, 1.5 h and 4.5 h. The following inhibitors were investigated and compared to plasma without inhibitor (each n = 3): 4-(2-aminoethyl)benzolsulfonylfluoride (AEBSF), hexadimethrine bromide, aprotinin, nafamostat mesylate and leupeptin. Additionally, the final blank generation protocol was evaluated for six human sources, whose generated blanks were analysed in triplicate to ensure the depletion of endogenous peptides across multiple sources.

[2] = format: in vitro ADME, human
Experimental: In this study, human blank plasma was generated by sampling blood into trisodium citrate S-Monovettes® spiked with hexadimethrine bromide and nafamostat mesylate to prevent the artificial generation of bradykinin. After centrifugation at 2000×g for 10 min at room temperature, the plasma was left at room temperature for 4 h to enable degradation of short-lived kinins. The blank plasma generated was stored at −20 °C until use.
Before preparation of quality control (QC) or calibration curve samples, a protease inhibitor was added to blank plasma samples, following a protocol derived from Nussberger et al.. Solid-phase extraction (SPE) was performed using 96-well Oasis weak cation exchange (WCX) μ-elution plates (Waters, Milford, MA, USA). The wells were conditioned with 200 μL methanol, followed by 200 μL water. […]
Finally, stability was examined using three replicates of four QC levels (high [750.0 pg/mL], mid [125.0 pg/mL] and low [31.1 pg/mL and 7.8 pg/mL]). […] Freeze-thaw stability was determined after one, two and four cycles of complete thawing and refreezing of samples at −80 °C. Furthermore, long-term stability of the plasma samples was analysed after 1, 2 and 4 weeks. For all stability investigations, the maximum deviation of the calculated concentration to the nominal concentration compared to a freshly prepared calibration curve was ≤15% (RE).

Row | Compound | Prevention of artificial generation of bradykinin (in words) [1] | Freeze-thaw stability (in words) [2]
1 | NCCc1ccc(S(=O)(=O)F)cc1 [AEBSF, 4-(2-aminoethyl)benzolsulfonylfluoride] | did not sufficiently prevent the artificial generation of bradykinin | 
2 | bradykinin 1-7 (RPPGFSP; Bradykinin; UniProt P01042 381-387, looked up, fragment) |  | trended towards a decrease
3 | N=C(N)c1ccc2cc(OC(=O)c3ccc(N=C(N)N)cc3)ccc2c1 [nafamostat, nafamostat mesylate] | only decreased the formation of bradykinin at the 0.5 h and 1.5 h timepoints | 
4 | CC(=O)N[C@@H](CC(C)C)C(=O)N[C@@H](CC(C)C)C(=O)N[C@H](C=O)CCCNC(=N)N [leupeptin] | only decreased the formation of bradykinin at the 0.5 h and 1.5 h timepoints | 
5 | aprotinin | did not sufficiently prevent the artificial generation of bradykinin | 
6 | bradykinin 1-5 (RPPGF; Bradykinin; UniProt P01042 381-385, looked up, fragment) |  | trended towards a decrease
7 | hexadimethrine bromide | lowest levels of bradykinin were detected | 
